According to patent US20070207198A1, “Use Of N-Acety1-D-Glucosamine In The Manufacture Of Medicaments For Anti-Tumors And Anti-Metastasis” (Beijing Sino-Hong Kong Dafu Science & Technology of Biowave …, priority 2003, published 2007):

Assays:
[1] = Typical case: breast cancer patient, metastasis after operation; type: in vivo, human; details: injection 15 g/60 kg/day before and for a week after the operation; within one year after the operation
Text: Chen, female, was accepted by the Department of Surgery of Chuanxinan Mining Area Hospital for suffering with breast cancer. The chief physician, Chen Qi, considered the high metastasis rate after operation, administrated Chen via injected with the compound of formula (I) in a dose of 15 g/60 kg/day before the operation and for a continuous week after the operation.

Proteus Mirabilis = experiment: Promoting wave test (bio-wave model); type: cell-based; details: final concentration 0.5% on LB plate, 37° C.
Text: 2. Experimental results and evaluation: • The experiment adopted a bio-wave model for studying the promoting wave function of the compound of formula (I).

B16 cells = experiment: Sole-injected B16 tumor growth in mice; type: in vivo, Kunming mice and Balbc mice; parameters: Diameter of tumor: unit not given here; details: for Diameter of tumor: 10% aqueous solution i.p.
Experimental: 1.1 Animals Kunming mice, Scad male mice
1.2 Tumor cells: B16 cells, PG cells and Biu cells, which were presented by from the Staff Room of Pathology of the present university and the Tumor Department of the Second Affiliated Hospital, respectively.
1.3 Methods: soles of Kunming mice and Balbc mice were injected with B16 cell suspension, and these mice were intraperitoneally injected with 10% aqueous solution of the compound of formula (I) at 0th, 4th and 7th day after B16 cells were injected.

[2] = in vivo
Text: 1. Acute toxicity test: including tests of administrating medicine orally, intravenous injection and maximum limit amount for administration;

Question: What does the source list for `CC(=O)N[C@@H]1[C@@H](O)[C@H](O)[C@@H](CO)O[C@H]1O` [compound of formula (I), N-acetyl-D-glucosamine]?
Answer: metastasis after operation [1]: no metastasis occurred; promoting wave function (ring pattern compared with control) (Proteus Mirabilis): many fine waves on each ring emerged; Diameter of tumor (B16 cells; Group I (administered immediately), observation time 3): 0; Diameter of tumor (B16 cells; Group I (administered immediately), observation time 7): 0.11; Diameter of tumor (B16 cells; Group I (administered immediately), observation time 14): 0.18; Diameter of tumor (B16 cells; Group I (administered immediately), observation time 21): 0.21; Diameter of tumor (B16 cells; Group I (administered immediately), observation time 28): 0.15; Diameter of tumor (B16 cells; Group II (administered at the 4th day), observation time 3): 0.05; Diameter of tumor (B16 cells; Group II (administered at the 4th day), observation time 7): 0.12; Diameter of tumor (B16 cells; Group II (administered at the 4th day), observation time 14): 0.43; Diameter of tumor (B16 cells; Group II (administered at the 4th day), observation time 21): 0.58; Diameter of tumor (B16 cells; Group II (administered at the 4th day), observation time 28): 0.72; Diameter of tumor (B16 cells; Group III (administered at the 7th day), observation time 3): 0.1; Diameter of tumor (B16 cells; Group III (administered at the 7th day), observation time 7): 0.21; Diameter of tumor (B16 cells; Group III (administered at the 7th day), observation time 14): 0.60; Diameter of tumor (B16 cells; Group III (administered at the 7th day), observation time 21): 1.10; Diameter of tumor (B16 cells; Group III (administered at the 7th day), observation time 28): 1.38; growth of tumor (B16 cells; high concentration intraperitoneally injected, B16 cells): inhibited; acute dosage relative to the injection dosage for human being [2]: 300 times; dosage at which the acute toxicosis reaction had not appeared [2]: more than 2 g/kg
